Measured values from US11213481B2, “Tumescent drug delivery” (priority 2004, dated 2022).
Converted amounts (≈) assume the structure as drawn. “And” between values parts separate entries of the source, which are not always exact repeats. Equal entries are not always repeated. Where two headings read alike, the source gives them in different places.

Experiments:
[1] = system: Staphyloccus aureus (MRSA) ATCC 33592; experiment: Minimum Inhibitory Concentration (MIC); conditions: Staphylococcus aureus
Procedure: Following inoculation, survival of test microorganisms was determined.

[2] = cited from earlier work
[3] = routine local anesthesia with lidocaine; cited from earlier work
platelet function = experiment: Bleeding time and bleeding area before and after tumescent lidocaine exposure (preliminary experiment); format: in vivo, human
Procedure: The skin of the left and right thigh of a subject is cleaned and allowed to dry. […] Simultaneous 4 mm deep puncture wounds are made to the same area of the left and right thighs with disposable lancets. The puncture sites are blotted with filter paper every 30 seconds, until bleeding stops and the bleeding time for each thigh is recorded. The bleeding times of the left and right thigh are compared to determine if administration of TLAnti increases bleeding time. Normal bleeding time measured by the Duke method is 1 to 3 minutes.
In a preliminary experiment, bleeding time and bleeding area were measured in a patient before and after tumescent lidocaine exposure. […] In contrast, there was a 40% increase in Average Bleeding Area (BA). Bleeding Area (BA) was a more sensitive and a more specific test for platelet function compared to Bleeding Time (BT). […] In otherwords, TAD may reduce the risk of both post-operative surgical site infection and post-operative thromboembolism.

S. aureus = conditions: effect increases with greater duration of exposure; cited from earlier work
[4] = system: Staphyloccus aureus (MRSA) ATCC 33592; experiment: Minimum Bactericidal Concentration (MBC); format: cell-based, Staphylococcus aureus
Description: Determinations of MBC followed the method described in “Report on the Working Party on Antibiotic Sensitivity Testing of the British Society of Antimicrobial Chemotherapy: A Guide to Sensitivity Testing.”

[5] = system: platelet aggregation induced by ADP, epinephrine and collagen; conditions: cited from earlier work
clinical = conditions: human, in vivo
Procedure: A clinical pharmacologic investigation was conducted to compare the pharmacokinetic advantages of two modes of systemic antibiotic delivery, Tumescent antibiotic delivery (TAD), which involves the delivery of a relatively large volume of an antibiotic-containing solution to the subcutaneous compartment, and intravenous antibiotic delivery (IVAD), which results in direct delivery of antibiotics to the blood stream, for prophylaxis of SSI.
With Institutional Review Board (IRB) approval, the absorption pharmacokinetics of tumescent antibiotic delivery (TAD) and intravenous antibiotic delivery (IVAD) were tested in human subjects and the antibiotic delivery modes were evaluated with respect to the area under the curve (AUC) of antibiotic concentration as a function of time and peak antibiotic concentration (Cmax) in serum and TISF. 4 female subjects participated in at least one study, one subject volunteered for 2 separate studies. 5 studies were conducted: 3 involved TAD to the abdomen, 1 involved TAD to the hips and outer thighs and 1 involved TAD to the breasts. […] Each of the 5 studies consisted of 2 to 3 pharmacokinetic procedures, for a total of 14 procedures. Any procedures conducted on an individual subject were separated by at least one week. In 13 procedures only IVAD or TAD, was used. In one procedure both IVAD and TAD were used concurrently, with IVAD started and finished within five minutes after completing TAD.
TAD was conducted as described herein. Following TAD, sequential 10 ml samples of tumescent adipose tissue were obtained using a hand-held syringe-liposuction technique. Sampling began immediately after completing the TAD infiltration (T0), and continuing until the patients reported significant discomfort. Liposuction aspirate samples were obtained at 0, 1, 2, 3, 4, 6, and 8 hours in all procedures; in 4 TAD procedures, sampling continued until 10 hours. Sequential serum samples for measurement of antibiotic concentration in serum after TAD ([Serum]TAD) were obtained simultaneously.
For IVAD, the antibiotic was delivered into an antecubital vein. Following IVAD, serum samples were taken from the contralateral arm via an indwelling venous catheter beginning immediately after completion of the antibiotic delivery (T0).
The samples of liposuction aspirate were centrifuged to obtain infranatant TISF, which comprises minimally blood-tinged tissue-free residual tumescent solution.
AUC (Area Under the Curve) of drug concentration as a function of time, a metric for measuring the cumulative exposure to an individual drug within a specified tissue, was estimated for time T0 to time Tn using the trapezoid rule: […]

[6] = cited from earlier work; remark: listed apart in the source
[7] = cited from earlier work; remark: listed apart in the source
[8] = 1 gm at the end of the surgery; 405 abdominal surgery patients; cited from earlier work
[9] = after vs before tumescent lidocaine exposure
[10] = post-op tumescent lidocaine exposure, Pt# 1, tests T3, T4

CCN(CC)CC(=O)Nc1c(C)cccc1C [Lidocaine]
MIC [1]: ~5000 µg/mL (≈ 21.3 mM) | dosage limitation approved by the FDA for infiltration local anesthesia ([2]; commercial lidocaine (1%=10 gm/L) with epinephrine (1:100,000=10 mg/L)): 7 mg/kg | maximum safe mg/kg dosage (estimated) ([2]; tumescent lidocaine, TLA without liposuction, adults): ~30 mg/kg | duration of local anesthesia [3]: ~2 h | change in Average Bleeding Time (BT) (platelet function; [9]): essentially no change | increase in Average Bleeding Area (BA) (platelet function; [9]): 40% | Lidocaine BA (Average Bleeding Area) (platelet function; post-op tumescent lidocaine exposure, Control BA = 541): BA = 759 | Lidocaine BT (Average Bleeding Time) (platelet function; post-op tumescent lidocaine exposure, Control BT = 6): BT = 5.75 | Bleeding Area BA (platelet function; [10]): 791.81 and 726.03 | Bleeding Time BT × 2 (platelet function; [10]): 10 and 13 | bactericidal activity in vitro (S. aureus): bactericidal | MRSA growth (MBC test) ([4]; Day 1, Lidocaine 1,000 mg/L, MRSA inoculum 4.7 × 10^5 CFU/ml): + | MRSA growth (MBC test) ([4]; Day 2, Lidocaine 1,000 mg/L, MRSA inoculum 4.4 × 10^5 CFU/ml): + | MRSA growth (MBC test) ([4]; Day 2, Lidocaine 5,000 mg/L, MRSA inoculum 4.4 × 10^5 CFU/ml): + | MRSA growth (MBC test) ([4]; Day 2, Lidocaine 10,000 mg/L, MRSA inoculum 4.4 × 10^5 CFU/ml): 0 | lidocaine concentration that consistently inhibits in-vitro platelet aggregation ([5]; aggregation induced by ADP, epinephrine and collagen): ≥ 0.5 mg/mL | effect on platelet aggregation ([5]; at safe systemic concentrations (e.g. ≤6 micrograms/ml)): no effect | platelet aggregation induced by ADP [5]: inhibit

Cc1nnc(SCC2=C(C(=O)O)N3C(=O)[C@@H](NC(=O)Cn4cnnn4)[C@H]3SC2)s1 [Cefazolin]
MRSA growth (MBC test) ([4]; Day 1, Cefazolin 62.5 mg/L, MRSA inoculum 4.7 × 10^5 CFU/ml): + | MRSA growth (MBC test) ([4]; Day 1, Cefazolin 125 mg/L, MRSA inoculum 4.7 × 10^5 CFU/ml): + | MRSA growth (MBC test) ([4]; Day 1, Cefazolin 250 mg/L, MRSA inoculum 4.7 × 10^5 CFU/ml): 0 | MRSA growth (MBC test) ([4]; Day 2, Cefazolin 62.5 mg/L, MRSA inoculum 4.4 × 10^5 CFU/ml): + | MRSA growth (MBC test) ([4]; Day 2, Cefazolin 125 mg/L, MRSA inoculum 4.4 × 10^5 CFU/ml): + | MRSA growth (MBC test) ([4]; Day 2, Cefazolin 250 mg/L, MRSA inoculum 4.4 × 10^5 CFU/ml): 0

Cc1ncc([N+](=O)[O-])n1CCO [Metronidazole]
interval in which serum concentration of metronidazole exceeded 4 μg/ml (clinical; female): 0 to 12 h | interval in which serum concentration of metronidazole exceeds 4 μg/ml (clinical; female): 0 to 12 h | AUC (clinical; female, 500 mg, AUC[Serum]IVAD, metronidazole, Study 4, IVAD dose 500 mg): 122 µg·h/mL | AUC (clinical; female, 500 mg, AUC[Serum]TAD): 67 µg·h/mL | AUC (clinical; female, 500 mg, AUC[TISF]TAD): 2600 µg·h/mL | AUC (clinical; female, 600 mg, AUC[Serum]IVAD, metronidazole, Study 5, IVAD dose 600 mg): 127 µg·h/mL | AUC (clinical; female, 600 mg, AUC[Serum]TAD): 81 µg·h/mL | AUC (clinical; female, 600 mg, AUC[TISF]TAD, metronidazole, Study 5 (Abdomen) TAD1: 600 mg, 172 mg/L in TAD): 1030 µg·h/mL | ER3 = ER1/ER2 = AUC[TISF]TAD/AUC[Serum]TAD (clinical; 500 mg): 38.8 | ER3 = ER1/ER2 = AUC[TISF]TAD/AUC[Serum]TAD (clinical; 600 mg): 12.7

CCOC(=O)c1ccc(N)cc1 [benzocaine]
platelet aggregation induced by ADP [5]: inhibit

CO[C@@]1(NC(=O)Cc2cccs2)C(=O)N2C(C(=O)O)=C(COC(N)=O)CS[C@@H]21 [cefoxitin]
protein binding [6]: approximately 72% | subjects with penetration P=AUC[ISF]IVAD/AUC[SERUM]IVAD less than 0.1 ([7]; normal controls): 3/10 | Penetration PR ([7]; normal weight volunteers, microdialysis): 0.37±0.26 | degree of antibiotic penetration into ISF relative to normal weight subjects ([7]; obese patients): 22% | subjects with penetration P=AUC[ISF]IVAD/AUC[SERUM]IVAD less than 0.1 ([7]; obese subjects): 8/10

O=C(Cc1cccs1)N[C@@H]1C(=O)N2C(C(=O)[O-])=C(C[n+]3ccccc3)CS[C@H]12 [cephaloridine]
incidence of wound infection, intravenous vs intra incisional [8]: no significant difference

CCCCN1CCCCC1C(=O)Nc1c(C)cccc1C (stereo not drawn) [bupivacaine]
platelet aggregation induced by ADP [5]: inhibit
